Assay results taken from article PMC6852662 (Organic & biomolecular chemistry, 2019).

Molecular target: T1, PmST1 (Pasteurella multocida, UniProt Q15KI8)
T1 sequence (Q15KI8 26-412): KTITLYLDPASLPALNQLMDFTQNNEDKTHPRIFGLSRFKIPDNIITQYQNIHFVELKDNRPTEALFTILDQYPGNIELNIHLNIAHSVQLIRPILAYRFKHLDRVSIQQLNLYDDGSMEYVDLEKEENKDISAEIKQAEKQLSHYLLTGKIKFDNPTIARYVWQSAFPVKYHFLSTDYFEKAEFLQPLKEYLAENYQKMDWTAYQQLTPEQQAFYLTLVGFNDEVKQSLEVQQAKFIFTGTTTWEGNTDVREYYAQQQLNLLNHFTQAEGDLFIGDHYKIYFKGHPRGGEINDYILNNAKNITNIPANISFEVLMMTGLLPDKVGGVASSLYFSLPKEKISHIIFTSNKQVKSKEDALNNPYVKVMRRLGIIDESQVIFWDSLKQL
Assay: sialylation, conversion
Format: biochemical
Conditions: poor substrate; prolonged incubation

## Gb5 [4a]
  conversion: ~ 30%
